10 compounds from PubChem BioAssay (NCI) can be followed below.

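Tested at 5 concentrations; 48 h exposure; 96-well plates; endpoints linearly interpolated, else capped at highest concentration. GI50: concentration for 50% inhibition of growth. TGI: concentration producing complete growth inhibition.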

Some test systems named below: SF-268 CNS; MCF7 breast; NCI-H460 lung; UACC-257 melanoma; A498 renal; SNB-19 CNS; A549 NSCLC; SF-295 CNS; OVCAR-3 ovarian; HOP-92 NSCLC.
Experiment in all cases: growth of human tumour cells (NCI), 48 h

Turning to `O=C(Nc1cccc(C(F)(F)F)c1)Nc1ccc(OCc2nnc(-c3ccccc3)o2)c(F)c1`, the GI50 was 12.3 µM in the test with SF-268 CNS; 4.21 µM in the test with MCF7 breast; 3.61 µM in the test with NCI-H460 lung; 6.38 µM in the test with UACC-257 melanoma; 3.38 µM in the test with A498 renal; 4.4 µM in the test on SNB-19 CNS. The GI50 was 6.02 µM in the test on A549 NSCLC, 2.7 µM in the test on SF-295 CNS, 4.23 µM in the test with OVCAR-3 ovarian and 1.77 µM in the test with HOP-92 NSCLC. Moreover, the TGI in the test with SF-268 CNS came to 78.2 µM; in the test with MCF7 breast, 24.4 µM; with NCI-H460 lung it was 15.3 µM; with UACC-257 melanoma, 37.9 µM; in the test with A498 renal, 25.8 µM; with SNB-19 CNS, 35.5 µM. The TGI in the test with A549 NSCLC is 38.5 µM; in the test on SF-295 CNS, 14.1 µM; in the test on OVCAR-3 ovarian it was 17 µM; in the test with HOP-92 NSCLC, 5.81 µM.
On to `Cc1cccc2c1Oc1ncccc1C2NC(=O)CN(C)C` (configuration not stated), for which the TGI in the test with SF-268 CNS, with MCF7 breast, with NCI-H460 lung, in the test with UACC-257 melanoma, in the test with SNB-19 CNS and with A549 NSCLC was above 10 µM in each case. Further, the TGI in the test on SF-295 CNS, with OVCAR-3 ovarian and with HOP-92 NSCLC was above 10 µM throughout.
As to `O=NNc1nc(-c2ccccn2)nc2ccccc12`, the TGI with SF-268 CNS, in the test on MCF7 breast, in the test with NCI-H460 lung, in the test on UACC-257 melanoma, with A498 renal and in the test on SNB-19 CNS was above 100 µM throughout. Also, the TGI with A549 NSCLC, in the test on SF-295 CNS and with OVCAR-3 ovarian was above 100 µM throughout.
In the case of `ClCc1ccc(Cn2cnc3nc(Cl)nc(Cl)c32)cc1`, the GI50 with SF-268 CNS was 0.629 µM; in the test with MCF7 breast, 0.663 µM; in the test with NCI-H460 lung it was 3.65 µM; in the test on UACC-257 melanoma it was 1.95 µM; with A498 renal, 4.36 µM; in the test on SNB-19 CNS it was 3.01 µM. Besides, the values for the GI50 with A549 NSCLC, in the test with SF-295 CNS and in the test with OVCAR-3 ovarian were 1.91 µM, 1.75 µM and 0.687 µM, respectively. The TGI in the test with SF-268 CNS worked out at 1.43 µM; with MCF7 breast, 2.36 µM; in the test on NCI-H460 lung it was 9.19 µM; with UACC-257 melanoma it was 4.33 µM; in the test with A498 renal it was 8.48 µM; with A549 NSCLC, 3.64 µM. The results for the TGI in the test with SF-295 CNS and in the test on OVCAR-3 ovarian were 3.27 µM and 1.45 µM, respectively.
Take `C=CCCC1(CCP(=O)(c2ccccc2)c2ccccc2)OCCO1`: the TGI in the test with SF-268 CNS, in the test with MCF7 breast, in the test on NCI-H460 lung, in the test with UACC-257 melanoma, in the test on SNB-19 CNS and in the test on A549 NSCLC was above 100 µM in each case. Further, the TGI in the test with SF-295 CNS and in the test with OVCAR-3 ovarian was above 100 µM each time.
In the case of `COc1ccc(-c2ccc(/C=N/n3c(COc4ccc(Cl)c(C)c4)nn(CN4CCOCC4)c3=S)o2)c([N+](=O)[O-])c1`, the GI50 is 33.8 µM in the test on SF-268 CNS; above 100 µM in the test with MCF7 breast; 18.5 µM in the test on NCI-H460 lung; 12.4 µM in the test with A498 renal; 41.2 µM in the test with SNB-19 CNS; 19.3 µM in the test with A549 NSCLC. Besides, the GI50 is 18.6 µM with SF-295 CNS and 17.3 µM in the test with OVCAR-3 ovarian. For the same compound, the TGI in the test with SF-268 CNS was above 100 µM; in the test with MCF7 breast it was above 100 µM; in the test on NCI-H460 lung it was 55.8 µM; in the test with A498 renal, 25.7 µM; in the test with SNB-19 CNS it was above 100 µM; in the test on A549 NSCLC, 96.8 µM. Also, the TGI in the test with SF-295 CNS came out at 46.6 µM; with OVCAR-3 ovarian it was 44.8 µM.
For `CCn1c(SC)nnc1-c1cc2c([nH]c3ccccc32)c(-c2cccc(O)c2)n1`, the GI50 is 3.42 µM with SF-268 CNS; 0.995 µM with MCF7 breast; 1.6 µM in the test with NCI-H460 lung; 1.42 µM in the test with A498 renal; 4.16 µM with SNB-19 CNS; 3.61 µM with A549 NSCLC. The GI50 in the test on SF-295 CNS was 1.83 µM; in the test with OVCAR-3 ovarian, 1.67 µM; in the test with HOP-92 NSCLC it was 1.1 µM. Moreover, the TGI is 25.5 µM with SF-268 CNS; 25.2 µM in the test on MCF7 breast; 16.6 µM with NCI-H460 lung; 10.9 µM in the test with A498 renal; 47 µM in the test with SNB-19 CNS; 62.9 µM with A549 NSCLC. For the same compound, the TGI in the test with SF-295 CNS was determined as 5.23 µM; with OVCAR-3 ovarian, 5.35 µM; in the test with HOP-92 NSCLC, 9.08 µM.
`COc1ccc(S(=O)(=O)NCCCNc2nccc(-c3c(-c4ccc(F)cc4)nc4sccn34)n2)cc1`: the GI50 in the test with SF-268 CNS was 7.85 µM; in the test with MCF7 breast, 2.74 µM; in the test with NCI-H460 lung, 4.33 µM; with UACC-257 melanoma, 12.6 µM; in the test on A498 renal it was 1.21 µM; in the test on SNB-19 CNS it was 40.2 µM. Also, the GI50 was 4.33 µM in the test with A549 NSCLC and 11.2 µM with SF-295 CNS. Further, the TGI in the test on SF-268 CNS is above 100 µM; in the test on MCF7 breast, above 100 µM; with NCI-H460 lung, above 100 µM; in the test on UACC-257 melanoma it was above 100 µM; in the test on A498 renal it was 8.37 µM; in the test on SNB-19 CNS, above 100 µM. For the same compound, the TGI with A549 NSCLC is above 100 µM; in the test with SF-295 CNS it was 72.3 µM.
Turning to `O=C(/C=C/c1ccc(OCC(=O)N2CCN(c3ccccc3)CC2)cc1)c1ccccc1`, the TGI in the test on SF-268 CNS is above 89.4 µM; in the test with NCI-H460 lung, above 87 µM; in the test on UACC-257 melanoma, above 100 µM; with A498 renal it was above 100 µM; in the test with SNB-19 CNS it was above 82.9 µM; in the test on A549 NSCLC, above 100 µM. For the same compound, the TGI with SF-295 CNS, with OVCAR-3 ovarian and in the test with HOP-92 NSCLC was above 100 µM throughout.
As for `Cc1cc(C2(c3cc(C)c(O)c4ncccc34)OC(=O)c3ccccc32)c2cccnc2c1O`, the TGI was above 100 µM with MCF7 breast; 0.203 µM in the test on NCI-H460 lung; above 100 µM with UACC-257 melanoma; above 100 µM with A498 renal; 14 µM in the test with A549 NSCLC; 21.3 µM with SF-295 CNS. Also, the GI50 in the test with UACC-257 melanoma is 0.496 µM; in the test on A498 renal, 12.3 µM; in the test with SNB-19 CNS, 0.0365 µM; in the test on SF-295 CNS it was 0.012 µM.
